Measurements as given in patent US20200325487A1, “A COM[…] FOR REDUCING RANDOM I[…] WHEN TR[…]” (UNIVERSITEIT LEIDEN, priority 2017, published 2020).

What was measured:
[1] = test system: wild type, ku80, mre11-2 and ku80mre11-2 mutant seedlings; assay: Assays for sensitivity to bleomycin and methyl methane sulfonate (MMS); assay type: in vivo, Arabidopsis thaliana; details: ku80mre11-2 double mutant, 0.02, 0.05 μg/ml bleomycin or 0.005%, 0.01% MMS; for fresh weight of double mutant plants in comparison with wild type and each of the single mutants: 10-days-old plate-grown plants; for growth phenotype of double mutant compared with each of the single mutants: scored 2 weeks after germination
Experimental: Seeds of wild type, ku80, mre11-2 and ku80mre11-2 mutants were surface-sterilized as described (Weijers et al. 2001) and germinated on solid % MS medium without additions or containing 0.02 μg/ml or 0.05 μg/ml bleomycin (Sigma), 0.005% (v/v), 0.007% or 0.01% MMS (Sigma) and photographed after 2 weeks. After 10 days growth, the fresh weight (compared with controls) was determined by weighing the seedlings in batches of 20 in duplicate. Statistical analyses were performed using Prism version 5 (GraphPad Software Inc.).

[2] = test system: root tips of Arabidopsis seedlings (wild type, ku80, mre11-2, ku80mre11-2); assay: Cell death assay (propidium iodide staining of root tips); assay type: in vivo, Arabidopsis thaliana; details: 0.05 μg/ml bleomycin for 1 day and 4 days; 4-d-old seedlings; more cell death in ku80mre11-2 double mutant
Experimental: Four days old seedlings on MS-agar plates were transferred to new MS-plates with DNA damaging agents. After one or four days treatments, the seedlings were placed in propidium iodide solution (PI, Sigma-Aldrich, 5 μg/ml in water) for 1 min and rinsed three times with water. Root tips were then transferred to slides in a drop of water and covered with a cover slip for observation under the fluorescence microscope.

Compound	fresh weight of double mutant plants in comparison with wild type and each of the single mutants [1]	growth phenotype of double mutant compared with each of the single mutants [1]	cell death in the root meristem (PI staining) [2]
COS(C)(=O)=O [MMS, Methyl Methane Sulfonate]	dramatically reduced	grew more slowly and developed fewer true leaves	
bleomycin	dramatically reduced	grew more slowly and developed fewer true leaves	caused cell death in the root meristem of both wild type and the mutants
